Data on two compounds can be found in US4721715A, “Derivatives of 4-(arylpiperazinyl-ethylaminoethoxy) phenol useful for effecting hypolipidemic therapy or cardiovascular therapy” (Societe Cortial, S.A., priority 1984, dated 1988).

Each structure is given as a SMILES string. Where a name gives a salt, the structure may show the parent alone. Read-outs that look alike come from different tables or passages of the source.

One series relates to Alpha-1. Nature of the series: Alpha-1 blocking activity in vitro: antagonism of norepinephrine-induced contractions of isolated rabbit aorta strips. As to conditions: norepinephrine 2.10^-6 mol/1.
Series [1] relates to isolated guinea pig ileum (serotonin). Nature of the series: Antiserotonin activity in vitro: serotonin-induced contractions of isolated guinea pig ileum. As to conditions: 4.10^-7 g/ml; serotonin 10^-6 g/ml. An excerpt:
Antiserotonin Activity: In vitro, contractions induced in isolated guinea pig ileum by 10^-6 g/ml serotonin were inhibited by COR 2838 in a concentration of 4.10^-7 g/ml and COR 2831 and COR 2833 in a concentration of 2.10^-6 g/ml.

For series [2], the system named is passive cutaneous anaphylaxis. Nature of the series: Passive cutaneous anaphylaxis test in rats. Type of series: in vivo. As to conditions: intravenous, 10 mg/kg. How it is done:
Antiallergy-Antihistamine Activity: In the passive cutaneous anaphylaxis test, COR 2833 and COR 2838 given to rats in an intravenous dose of 10 mg/kg produced 53 and 60% activity, respectively. Under the same conditions, COR 2831 produced 67% activity in an oral dose of 5 mg/kg.

In series [3] the test system is strips of mesenteric veins. Nature of the series: Anticalcium activity: calcium-induced increment of spontaneous contractions in mesenteric vein strips. As to conditions: 5.10^-6 g/ml, rats with normal blood pressure. An excerpt: At 5.10^-6 g/ml, COR 2838 inhibited the calcium-induced increment of spontaneous contractions in strips of mesenteric veins from rats with normal blood pressure.

The test system of series [4] is phenylephrine-induced hypertension. Nature of the series: Alpha-blocking activity in vivo: antagonism of phenylephrine-induced hypertension in rats with spinal cord removal and bivagotomy. As to conditions: Rattus norvegicus, intravenous. How it is done: (§1) Alpha-blocking activity was determined in vivo in mice with the test involving inhibition of mydriasis induced by norepinephrine. […] Thirty minutes later, 0.75 mg/kg norepinephrine was administered intravenously. […] In vivo alpha-blocking activity was also evaluated by determination of antagonism of phenylephrine-induced hypertension. The test products were administered by the intravenous route to rats that had undergone spinal cord removal and bivagotomy according to the technique by J. S. Gillespie and T. S. Muir (Br. J. Pharmac. Chemother. 30:78-87, 1967). The dosage, maximum activity, and the interval after which residual activity was equal to 50% of the maximum activity are presented below: […]

A further series concerns left guinea pig auricle. Put plainly: Anticalcium activity: electrically stimulated left guinea pig auricle, calcium-induced contraction force. As to conditions: 25.10^-6 g/ml; 0.6 mM calcium added; 150 beats/min, low calcium Tyrode's solution.
Series [5] deals with isolated guinea pig ileum (histamine). Nature of the series: Antihistamine activity in vitro: histamine-induced contractions of isolated guinea pig ileum. As to conditions: 10^-5 g/ml; histamine 5.10^-7 g/ml.
Series [6] is described as follows: Solubility and hygroscopicity of the isolated product. As to conditions: dihydrochloride. Type of series: physicochemical. The protocol: A solution of 6 g 4-isopropyl-2-methyl-4-methylaminoethoxy phenol and 6 g 1-chloroethyl-4-phenylpiperazine in 10 ml triethylamine and 150 ml ethyl alcohol is heated for 20 hours in a reflux system. The excess ethyl alcohol and triethylamine are evaporated. The residue is taken up in an aqueous solution of hydrochloric acid. The solution obtained is extracted with chloroform. The aqueous phase is alkalized with ammonia and then extracted again with chloroform. After drying and evaporation of the chloroform, 9.3 g of crude product is obtained. This is purified by silica chromatography using as the eluent pure chloroform followed by a mixture of 98% chloroform and 2% methanol. This procedure yield 4.6 g of free base; yield, 42%. The latter is transformed into a hydrochloride by a saturated ethyl ether solution in gaseous hydrochloric acid. This produces a white solid which is filtered and washed with a little ethyl ether.

For series [7], the system named is mice. Nature of the series: Toxicity, intraperitoneal administration to mice.
The test system of series [8] is norepinephrine-induced mydriasis. Put plainly: Alpha-blocking activity in vivo: inhibition of norepinephrine-induced mydriasis in mice. The following applies: 30 min before 0.75 mg/kg norepinephrine IV. How it is done:
as §1

The test system of series [9] is mice. Put plainly: Toxicity, intravenous administration to mice. As to conditions: intravenous, 6.2 mg/kg. The format is in vivo.
The nature of series [10]: Toxicity, intravenous administration to mice. The format is in vivo. The following applies: mouse, in vivo, intravenous, read-out: mortality rate.
Series [11] deals with stereotypy induced by apomorphine. Nature of the series: Neuroleptic activity: inhibition of apomorphine-induced stereotypy in rats. The following applies: 100 mg/kg intraperitoneal, apomorphine 2.5 mg/kg subcutaneous.
Series [12] concerns climbing induced by apomorphine. Put plainly: Neuroleptic activity: climbing test (apomorphine) in mice. The format is in vivo. As to conditions: apomorphine 1.5 mg/kg. How it is done: The neuroleptic activity of COR 2865 was determined in the climbing test. […] They were given 1.5 mg/kg apomorphine in order to induce a maximum climbing level.
The test system of series [13] is spontaneously hypertensive rats. Nature of the series: Antihypertensive activity, spontaneously hypertensive rats, oral, arterial pressure at the tail. Type of series: in vivo. The following applies: 100 mg/kg. The protocol:
In another experiment that was also performed with oral administration in spontaneously hypertensive rats, arterial pressure was measured indirectly at the tail two, four and six hours after administration.

For series [14], the system named is mice with hypercholesterolemia. Put plainly: Hypolipidemic activity in mice with diet-induced hypercholesterolemia. The format is in vivo. The following applies: oral 100 mg/kg on the sixth and seventh day. The protocol:
Hypolipidemic Activity: In mice with hypercholesterolemia produced by a diet high in cholesterol and cholic acid fed for seven days, administration of an oral dose of 100 mg/kg COR 2865 on the sixth and seventh day brought about a reduction in serum cholesterol of 31% and a reduction of HP-betalipoproteins of 38% as well as a decrease in the VLDL+LDL/cholesterol ratio.

Series [15] is described as follows: Toxicity, oral administration to mice. Type of series: in vivo. As to conditions: mouse, in vivo, oral route, confidence interval in parentheses.

With `Cc1cc(OCCN(C)CCN2CCN(c3ccccc3)CC2)c(C(C)C)cc1O` [COR 2838, 5-Isopropyl-2-methyl-4-((N-methyl N-2-(phenylpiperazinyl-ethyl)amino)ethoxy) phenol dihydrochloride], in the series on Alpha-1, the “interval between introduction of the test product and of the […] into the bath, which corresponds to the maximum activity” value came out at 60 min. Moreover, in series [1], the “inhibition of serotonin-induced contractions” value was “inhibited”. The “activity in the passive cutaneous anaphylaxis test” value in series [2] came out at 60%. Besides, in series [3], the “inhibition of calcium-induced increment of spontaneous contractions” value was “inhibited”. Further, the inhibition in vivo at 3 µmol/kg in series [4] (3.10^-6 M/kg, read-out: maximum activity (antagonism of phenylephrine-induced hypertension)) worked out at 60%. Moreover, in the series on left guinea pig auricle, the “inhibition of the increment in the contraction force induced by calcium” value came to 50%. In addition, the “inhibition of histamine-induced contractions” value in series [5] was 80%. Moreover, in series [6], the hygroscopicity result is “hygroscopic” and the solubility in water entry is recorded as “soluble in water”. Moreover, the deaths result in the series on mice [7] (mouse, in vivo, ip, 50 mg/kg) is given as “no deaths”.

In the case of `CCOc1ccccc1N1CCN(CCOc2cc(C)c(O)cc2C(C)C)CC1` [COR 2865, 5-Isopropyl-2-methyl-4-((2-ethoxyphenyl)piperazinylethoxy) phenol hydrochloride], the results for the inhibition of mydriasis in [8] (1 mg/kg intraperitoneal) and in series [8] (2.5 mg/kg intraperitoneal) were 54% and 80%, respectively. Moreover, the deaths result in the series with mice [9] is given as “no deaths”; in the series with mice [7] (mice, intraperitoneal dose of 200 mg per kg), “no deaths”. For the same compound, the mortality stood at 10% in [10] (12.5 mg/kg), 20% in series [10] (25 mg/kg), 5% in [10] (50 mg/kg) and 90% in series [10] (100 mg/kg). Besides, in series [11], the “inhibition of apomorphine-induced stereotypy” value is given as 67%. The “inhibition of the climbing induced by apomorphine” value in series [12] (10 mg per kg intraperitoneal) worked out at 83%; in series [12] (25 mg/kg intraperitoneal), 100%. In addition, the pressure reduction in series [13] (four hours after administration) was determined as 21%; in [13] (six hours after administration), 23%; in series [13] (two hours after administration), 19%. Besides, the ED50 was determined as 0.0117 µmol/kg in [4] (2 min, after 2 min); 0.318 µmol/kg in series [4] (0.5 h, after 30 min); 0.5 µmol/kg in [4] (1 h, after 60 min). For the same compound, the inhibition in vivo at 1 µM, 1 µmol/kg in [4] (10^-6 M/kg, read-out: maximum activity (antagonism of phenylephrine-induced hypertension)) stood at 122%. Further, the “reduction in serum cholesterol” value in [14] came out at 31%. Besides, the “reduction of HP-betalipoproteins” value in series [14] was determined as 38%. The 50% lethal dose (LD50) in series [15] came out at 1440 mg/kg.

One may read the mortality as the share of the test organisms that died. By ED50 is commonly meant the dose that gives a 50% effect, or the effect in half of the subjects. A low value points to greater potency. A word on the LD50: it is the dose expected to kill half of the subjects tested.
